{"source": "patent US20060122240A1", "about": "“Benzotriazoles and methods of prophylaxis or treatment of metabolic-related disorders thereof” (Arena Pharmaceuticals, Inc., priority 2002, published 2006)", "format_in_all_cases": "cell-based", "key": {"[1]": {"target": "T1, hRUP38 (Homo sapiens, UniProt P49019)", "T1 construct": "expressed in transfected cells", "T1 sequence (P49019 whole entry K94N/T173P/F198L/H253R/I317M/I346M)": "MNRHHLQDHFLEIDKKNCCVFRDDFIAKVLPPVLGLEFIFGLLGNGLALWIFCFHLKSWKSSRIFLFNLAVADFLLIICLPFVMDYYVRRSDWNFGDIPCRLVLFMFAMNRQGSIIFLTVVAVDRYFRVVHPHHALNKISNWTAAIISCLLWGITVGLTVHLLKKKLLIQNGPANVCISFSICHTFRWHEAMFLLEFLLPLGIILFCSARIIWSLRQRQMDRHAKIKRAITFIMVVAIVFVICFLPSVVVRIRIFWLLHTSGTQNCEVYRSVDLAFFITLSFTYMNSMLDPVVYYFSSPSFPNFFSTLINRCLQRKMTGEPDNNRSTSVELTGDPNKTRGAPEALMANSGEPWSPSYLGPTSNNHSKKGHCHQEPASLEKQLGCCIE", "experiment": "Adenylyl cyclase / cAMP Whole Cell assay in CHO cells stably transfected with hRUP38", "method": "A modified Flash Plate™ Adenylyl Cyclase kit (New England Nuclear; Cat. No. SMP004A) was utilized for direct identification of candidate compounds as agonists to hRUP38 (Seq. Id. Nos. 1 & 2) or hRUP25 (Seq. Id. Nos. 3 & 4) in accordance with the following protocol:\nCHO cells stably transfected with hRUP38 were harvested from flasks via non-enzymatic means. The cells were washed in PBS and resuspended in the manufacturer's Assay Buffer. […] To these wells, 100,000 cells in 50 μl of Assay Buffer were added and the mixture was then incubated for 30 minutes at room temperature, with gentle shaking. Following the incubation, 100 μl of Detection Buffer was added to each well, followed by incubation for 2-24 hours. Plates were counted in a Wallac MicroBeta™ plate reader using “Prot. #31” (as per manufacturer instructions)."}, "[2]": {"target": "T2, hRUP25 (Homo sapiens, UniProt Q8TDS4)", "T2 construct": "expressed in transfected cells; host or cells: CHO cells", "T2 sequence (Q8TDS4 whole entry)": "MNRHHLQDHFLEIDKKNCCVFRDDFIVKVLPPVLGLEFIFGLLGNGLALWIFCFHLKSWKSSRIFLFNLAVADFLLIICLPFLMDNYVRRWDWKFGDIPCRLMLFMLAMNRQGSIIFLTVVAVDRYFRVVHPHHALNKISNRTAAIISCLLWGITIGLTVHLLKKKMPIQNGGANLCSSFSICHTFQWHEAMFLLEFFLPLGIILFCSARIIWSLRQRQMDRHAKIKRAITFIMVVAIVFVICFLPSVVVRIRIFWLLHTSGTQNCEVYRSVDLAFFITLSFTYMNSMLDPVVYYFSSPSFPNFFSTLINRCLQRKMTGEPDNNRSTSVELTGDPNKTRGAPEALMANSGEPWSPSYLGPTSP", "experiment": "Adenylyl cyclase assay in CHO cells expressing hRUP25", "conditions": "FIG. 1 screening data", "from_the_text": "FIG. 1. FIG. 1 presents screening data via adenylyl cyclase assay for hRUP38. […] 1-Isopropyl-1H-benzotriazole-5-carboxylic acid has no effect on CHO cells expressing hRUP25.\nA modified Flash Plate™ Adenylyl Cyclase kit (New England Nuclear; Cat. No. SMP004A) was utilized for direct identification of candidate compounds as agonists to hRUP38 (Seq. Id. Nos. 1 & 2) or hRUP25 (Seq. Id. Nos. 3 & 4) in accordance with the following protocol: […]"}, "[3]": {"system": "primary human adipocytes", "experiment": "Inhibition of isoproterenol stimulated lipolysis in human subcutaneous adipocytes", "conditions": "isoproterenol 100 nM, adipocyte primary cultures from human subcutaneous fat, FIG. 2"}}, "note": "Entries after “also recorded” stand apart in the source; their conditions may differ. Read-outs that look alike come from different tables or passages of the source.", "data": [{"compound": "CC(C)n1nnc2cc(C(=O)O)ccc21", "note": "[Example 6.1, 1-Isopropyl-1H-benzotriazole-5-carboxylic acid]", "values": [{"measurement": "EC50", "setting": "[1]; average of seven (7) trials, read-out: hRUP38 (EC50) cAMP Whole Cell", "result": 0.388, "unit": "µM"}, {"measurement": "EC50", "setting": "[1]; inhibition of forskolin stimulated cAMP, hRUP38-expressing CHO cells, read-out: EC50, adenylyl cyclase assay for hRUP38 (FIG. 1)", "result": 0.166, "unit": "µM"}, {"measurement": "effect on CHO cells expressing hRUP25", "setting": "[2]", "result": "no effect"}, {"measurement": "inhibition of isoproterenol stimulated lipolysis", "setting": "[3]", "result": "dose-dependent manner comparable to that of nicotinic acid; also recorded: dose-dependant manner comparable to that of nicotinic acid"}]}]}
